Experimental data taken from ChEMBL document CHEMBL1201862, “PubChem BioAssay data set” (2004).
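Dose response: 5 concentrations. Exposure: 48 h. Format: 96-well plates. Endpoint: linear interpolation; highest concentration if not reached. Abbreviation: GI50, concentration required for 50% inhibition of growth.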 Activity calls are given as the source filed them. No stated cut-off is given here; in the data, active = GI50 up to about 1.1 µM and inactive = higher.

Experiments:
Assay in all cases: inhibition of tumour cell growth, NCI panel, 48 h
[1] = test system: 786-0
[2] = test system: A498
[3] = test system: A549
[4] = test system: ACHN
[5] = test system: CAKI-1
[6] = test system: CCRF-CEM
[7] = test system: COLO 205
[8] = test system: DLD-1
[9] = test system: DMS-114
[10] = test system: DMS-273
[11] = test system: EKVX
[12] = test system: HCC 2998
[13] = test system: HCT-116
[14] = test system: HCT-15
[15] = test system: HL-60
[16] = test system: HOP-18
[17] = test system: HOP-62
[18] = test system: HOP-92
[19] = test system: HT-29
[20] = test system: IGROV-1
[21] = test system: K562
[22] = test system: KM-20L2
[23] = test system: KM12
[24] = test system: LOX IMVI
[25] = test system: LXFL 529
[26] = test system: M14
[27] = test system: M19-MEL
[28] = test system: MOLT-4
[29] = test system: Malme-3M
[30] = test system: NCI-H226
[31] = test system: NCI-H23
[32] = test system: NCI-H460
[33] = test system: NCI-H522
[34] = test system: OVCAR-3
[35] = test system: OVCAR-4
[36] = test system: OVCAR-5
[37] = test system: OVCAR-8
[38] = test system: RPMI-8226
[39] = test system: RXF 393
[40] = test system: SF-268
[41] = test system: SF-295
[42] = test system: SF-539
[43] = test system: SK-MEL-28
[44] = test system: SK-MEL-2
[45] = test system: SK-MEL-5
[46] = test system: SK-OV-3
[47] = test system: SN12C
[48] = test system: SNB-19
[49] = test system: SNB-75
[50] = test system: SNB-78
[51] = test system: SR
[52] = test system: SW-620
[53] = test system: TK-10
[54] = test system: U-251
[55] = test system: UACC-257
[56] = test system: UACC-62
[57] = test system: UO-31
[58] = test system: XF498

**Q.** What does the source list for O=c1[nH]c(=O)n(C2OC(COP(=O)(O)OP(=O)(O)O)C(O)C2O)cc1F (stereo unspecified)?
**A.** GI50 [1]: 239 nM (active); GI50 [2]: 6250 nM (inactive); GI50 [3]: 119 nM (active); GI50 [4]: 178 nM (active); GI50 [5]: 368 nM (active); GI50 [6]: 817 nM (active); GI50 [7]: 1570 nM (inactive); GI50 [8]: 226 nM (active); GI50 [9]: 28500 nM (inactive); GI50 [10]: 456 nM (active); GI50 [11]: 2440 nM (inactive); GI50 [12]: 538 nM (active); GI50 [13]: 64.3 nM (active); GI50 [14]: 446 nM; GI50 [15]: 7430 nM (inactive); GI50 [16]: > 28000 nM (inactive); GI50 [17]: 2240 nM (inactive); GI50 [18]: > 50000 nM (inactive); GI50 [19]: 716 nM (active); GI50 [20]: 11800 nM (inactive); GI50 [21]: 184 nM (active); GI50 [22]: 923 nM (active); GI50 [23]: 2280 nM (inactive); GI50 [24]: 251 nM (active); GI50 [25]: 555 nM (active); GI50 [26]: 1550 nM (inactive); GI50 [27]: 1820 nM (inactive); GI50 [28]: 877 nM (active); GI50 [29]: 726 nM (active); GI50 [30]: 3130 nM (inactive); GI50 [31]: 2080 nM (inactive); GI50 [32]: 45.3 nM (active); GI50 [33]: 2480 nM (inactive); GI50 [34]: 6340 nM (inactive); GI50 [35]: 1230 nM (inactive); GI50 [36]: 7000 nM (inactive); GI50 [37]: 2110 nM (inactive); GI50 [38]: 436 nM (active); GI50 [39]: 2570 nM (inactive); GI50 [40]: 298 nM (active); GI50 [41]: 822 nM (active); GI50 [42]: 594 nM (active); GI50 [43]: 2130 nM (inactive); GI50 [44]: 6790 nM (inactive); GI50 [45]: 4310 nM (inactive); GI50 [46]: 3920 nM (inactive); GI50 [47]: 916 nM (active); GI50 [48]: 743 nM (active); GI50 [49]: 8650 nM (inactive); GI50 [50]: 5790 nM (inactive); GI50 [51]: 1340 nM (inactive); GI50 [52]: 171 nM (active); GI50 [53]: 15600 nM (inactive); GI50 [54]: 391 nM (active); GI50 [55]: 6110 nM (inactive); GI50 [56]: 2700 nM (inactive); GI50 [57]: 6080 nM (inactive); GI50 [58]: 1690 nM (inactive)

**Q.** With CC(=O)OC1CCCn2c1nc1c2C(=O)C(C)=C(N2CC2)C1=O (stereo unspecified) as the molecule, how does the GI50 [1] read?
**A.** Its GI50 is 222 nM (active).

**Q.** What about the GI50 [2] of the same molecule?
**A.** The GI50 was 161 nM (active).

**Q.** What about the GI50 [3] of the same molecule?
**A.** Its GI50 is 316 nM (active).

**Q.** And the GI50 [4]?
**A.** Its GI50 is 254 nM (active).

**Q.** What about the GI50 [5] of the same molecule?
**A.** The GI50 was 296 nM (active).

**Q.** What about the GI50 [6] of the same molecule?
**A.** Its GI50 is 3510 nM (inactive).

**Q.** And the GI50 [7]?
**A.** The GI50 was 535 nM (active).

**Q.** What about the GI50 [8] of the same molecule?
**A.** The GI50 was 583 nM (active).

**Q.** What about the GI50 [9] of the same molecule?
**A.** Its GI50 is 771 nM (active).

**Q.** And the GI50 [10]?
**A.** Its GI50 is 150 nM (active).

**Q.** What about the GI50 [11] of the same molecule?
**A.** Its GI50 is 721 nM (active).

**Q.** And the GI50 [12]?
**A.** The GI50 was 232 nM (active).

**Q.** And the GI50 [13]?
**A.** Its GI50 is 409 nM (active).

**Q.** And the GI50 [14]?
**A.** Its GI50 is 207 nM.

**Q.** And the GI50 [15]?
**A.** Its GI50 is 2410 nM (inactive).

**Q.** And the GI50 [16]?
**A.** Its GI50 is 348 nM (active).

**Q.** What about the GI50 [17] of the same molecule?
**A.** The GI50 was 216 nM (active).

**Q.** And the GI50 [18]?
**A.** The GI50 was 27800 nM (inactive).

**Q.** What about the GI50 [19] of the same molecule?
**A.** The GI50 was 208 nM (active).

**Q.** What about the GI50 [20] of the same molecule?
**A.** The GI50 was 962 nM (active).

**Q.** What about the GI50 [21] of the same molecule?
**A.** Its GI50 is 891 nM (active).

**Q.** And the GI50 [22]?
**A.** Its GI50 is 450 nM (active).

**Q.** What about the GI50 [23] of the same molecule?
**A.** Its GI50 is 403 nM (active).

**Q.** What about the GI50 [24] of the same molecule?
**A.** Its GI50 is 303 nM (active).

**Q.** And the GI50 [25]?
**A.** Its GI50 is 614 nM (active).

**Q.** And the GI50 [26]?
**A.** The GI50 was 163 nM (active).

**Q.** What about the GI50 [27] of the same molecule?
**A.** Its GI50 is 392 nM (active).

**Q.** And the GI50 [28]?
**A.** Its GI50 is 19400 nM (inactive).

**Q.** What about the GI50 [29] of the same molecule?
**A.** Its GI50 is 219 nM (active).

**Q.** And the GI50 [30]?
**A.** Its GI50 is 318 nM (active).

**Q.** What about the GI50 [31] of the same molecule?
**A.** Its GI50 is 92.3 nM (active).

**Q.** And the GI50 [32]?
**A.** Its GI50 is 79.8 nM (active).

**Q.** What about the GI50 [33] of the same molecule?
**A.** The GI50 was 156 nM (active).

**Q.** And the GI50 [34]?
**A.** Its GI50 is 329 nM (active).

**Q.** And the GI50 [35]?
**A.** Its GI50 is 773 nM (active).

**Q.** And the GI50 [36]?
**A.** The GI50 was 356 nM (active).

**Q.** And the GI50 [37]?
**A.** The GI50 was 388 nM (active).

**Q.** And the GI50 [38]?
**A.** The GI50 was 1070 nM (active).

**Q.** And the GI50 [39]?
**A.** The GI50 was 284 nM (active).

**Q.** And the GI50 [40]?
**A.** Its GI50 is 251 nM (active).

**Q.** What about the GI50 [41] of the same molecule?
**A.** The GI50 was 160 nM (active).

**Q.** And the GI50 [42]?
**A.** The GI50 was 519 nM (active).

**Q.** And the GI50 [43]?
**A.** The GI50 was 522 nM (active).

**Q.** What about the GI50 [44] of the same molecule?
**A.** The GI50 was 277 nM (active).

**Q.** And the GI50 [45]?
**A.** Its GI50 is 185 nM (active).

**Q.** And the GI50 [46]?
**A.** Its GI50 is 364 nM (active).

**Q.** What about the GI50 [47] of the same molecule?
**A.** The GI50 was 308 nM (active).

**Q.** What about the GI50 [48] of the same molecule?
**A.** The GI50 was 338 nM (active).

**Q.** And the GI50 [49]?
**A.** Its GI50 is 301 nM (active).

**Q.** And the GI50 [50]?
**A.** Its GI50 is 454 nM (active).

**Q.** What about the GI50 [51] of the same molecule?
**A.** The GI50 was 18100 nM (inactive).

**Q.** What about the GI50 [52] of the same molecule?
**A.** The GI50 was 167 nM (active).

**Q.** What about the GI50 [53] of the same molecule?
**A.** The GI50 was 2750 nM (inactive).

**Q.** And the GI50 [54]?
**A.** Its GI50 is 201 nM (active).

**Q.** What about the GI50 [55] of the same molecule?
**A.** Its GI50 is 242 nM (active).

**Q.** And the GI50 [56]?
**A.** Its GI50 is 301 nM (active).

**Q.** And the GI50 [57]?
**A.** Its GI50 is 605 nM (active).

**Q.** What about the GI50 [58] of the same molecule?
**A.** Its GI50 is 234 nM (active).
